Reference: patent publication US8399495B2, “Talarazole metabolites” (Stiefel Laboratories, Inc., priority 2006, dated 2013)

Columns and labels:
[1] = system: vaginal keratinization induced by estrogenic treatment; experiment: Inhibition of vaginal keratinization induced by estrogenic treatment in ovariectomized rats; assay type: in vivo, rat; settings: ovariectomized rats with estrogenic treatment; M4 oral during 3 days
From the text: Effects on Epithelial Differentiation in Rat Vagina: Inhibition of Vaginal Keratinization Induced by Estrogenic Treatment in Ovariectomized Rats by Oral Administration of Talarozole Metabolite M4
This animal model is based on the observation that retinoic acid (RA) suppresses the keratinization process in the stratified squamous epithelium of the vagina induced by estrogenic treatment in ovariectomized rats (Sietsema & DeLuca, 1982; Geiger & Weiser, 1989).

[2] = Excretion of radioactivity (mass balance), mouse; assay type: in vivo; settings: 0-48 h, oral 5 mg/kg; for % in Feces (percent of dose recovered, total radioactivity) / % in Urine (percent of dose recovered, total radioactivity): 5 mg/kg
From the text: (§1) Mouse, rat, dog and human were the species used for the safety evaluations of talarozole. More specifically, the disposition of ^14C-labeled talarozole was examined in mice, rats, dogs and humans after oral administration to provide information regarding the absorption, metabolism and excretion of talarozole.
(§2) Male and female CD-1 mice (19-29 g, n=3/sex/timepoint for blood sampling, n=3/sex for mass balance), Sprague Dawley rats (0.205-0.237 kg, n=3/sex/timepoint for blood sampling, n=3/sex for mass balance) and beagle dogs (7-12 kg, n=3) were given a single oral dose of ^14C-labeled talarozole in 20% hydroxyl propyl B-cyclodextrin at 5 mg/kg. Healthy human male volunteers (76.6-107.9 kg, n=5) were dosed with a single oral dose of 4 mg ^14C-labeled rambazole in ethanol. Blood samples were collected at selected timepoints after dosing and plasma was prepared. Urine and feces were collected for 2, 7 and 8 days. For the human study, up to 288 hours post-dose and semen samples were obtained 2 and 4 hours post-dose. Radioactivity in various matrices were measured by liquid scintillation counting (LSC). Select plasma, urine and fecal samples were subjected to metabolite radioprofiling and characterization, and in the human study, semen samples. Metabolite radioprofiling was accomplished using HPLC with fraction collection followed by solid scintillation counting (Packard TopCount—see representative HPLC run data below). Radioactivity peaks were integrated and the percent distribution of individual metabolites in each sample was determined. Metabolite characterization and identification were accomplished by LC/MS (Finnigan MAT LCQ in positive or negative ESI mode) in conjunction with an appropriate radioactive monitor (RAM). For all species, plasma, urine and fecal samples were pooled across animals and analyzed. Plasma was analyzed at several time-points out to 24 hours. Urine was analyzed over one time-interval (0-24 hours for mouse, 0-48 hours for rat, 0-72 hours for dog, and for in the human study, 0-12, 12-24, 24-48, 0-48 hours. Feces was analyzed over 2-3 time intervals (0-24 and 24-48 hours for mouse and rat; 0-24, 24-48, and 48-72 hours for male dogs; and 24-48, 48-72, and 72-96 hours for female dogs). In the human study, feces were analyzed for 0-48, 48-96, 96-144, 144-192, 192-288, 0-144, 144-288 and 0-288 hours. PK parameters for ^14C-labeled talarozole radioactivity was determined from the mean (mouse and rat) or individual (dog and human) plasma concentration versus time data. PK parameter values were determined by non-compartmental methods using WinNonlin™. • HPLC data for separations described in Example 1: • LC system: Waters 2695 Separations Module • Analytic column: C18 column, 4.6×150 mm, 3 μm • Flow rate: 1.0 mL/min • Mobile phase A: 2% HCOOH in H2O (pH 3.2) • Mobile phase B: CH3CN • Gradient: […]

[3] = Excretion of radioactivity (mass balance), human; assay type: in vivo; settings: male, 0-288, oral 4 mg
From the text: as §1, §2

[4] = female, listed as 14C-Talarozole
[5] = listed as 14C-labeled talarozole

For CCC(CC)[C@H](c1ccc(Nc2nc3ccccc3s2)cc1)n1cncn1 [Talarozole, (R)—N-[4-[2-ethyl-1-(1H-1,2,4-triazole-1-yl)butyl]phenyl]-2-benzothiazolamine], the “ED50-value for complete suppression (keratinization score=0)” value [1] was 1.0 mg/kg/day, the “% in Cage Rinse (percent of dose recovered)” value ([2]; female) was 0.8% and the “Total % Recovered” value ([2]; female) was 95.4%. For the same compound, the “% in Feces (percent of dose recovered, total radioactivity)” value [2, 4] was 91.59 F %, the “% in Urine (percent of dose recovered, total radioactivity)” value [2, 4] was 2.96 F % and the “% in Feces (percent of dose recovered, total radioactivity)” value ([2]; female, listed as 14C-labeled talarozole) was 91.6%. For the same compound, the “% in Cage Rinse (percent of dose recovered)” value ([2]; male) was 4.4%, the “Total % Recovered” value ([2]; male) was 91.4% and the “% in Feces (percent of dose recovered, total radioactivity)” value ([2]; male, listed as 14C-Talarozole) was 82.70 M %. For the same compound, the “% in Urine (percent of dose recovered, total radioactivity)” value ([2]; male, listed as 14C-Talarozole) was 4.27 M %, the “% in Feces (percent of dose recovered, total radioactivity)” value ([2]; male, listed as 14C-labeled talarozole) was 82.7% and the “Total % Recovered” value [3] was 87.7%. The “% in Feces (percent of dose recovered, total radioactivity)” value ([3]; listed as 14C-Talarozole) was 80.36%, the “% in Urine (percent of dose recovered, total radioactivity)” value ([3]; listed as 14C-Talarozole) was 7.29% and the “% in Feces (percent of dose recovered, total radioactivity)” value [3, 5] was 72.2%. For the same compound, the “% in Urine (percent of dose recovered, total radioactivity)” value [3, 5] was 7.3%.
